Results as given in patent US7641897B2, “Feeder layer and serum independent embryonic stem cells” (The Board of Trustees of the Leland Stanford Junior …, priority 2004, dated 2010).

Assays:
Type in all cases: cell-based, murine
[1] = test system: parental ES cell line (D3 ES cells); assay: Self-renewal, differentiation and growth of ES cells in serum- and feeder-free culture with LIF and MAP kinase inhibitors
Experimental: (§1) FIG. 5A-5C. Effect of MAPK inhibitors on ES cell self-renewal. (A) Phase contrast image of parental ES cells cultured for 8 days (left), Bcl-2 ES cells cultured for 14 days (middle), and parental ES cells cultured with PD98059 for 14 days (right) in serum- and feeder-free conditions. (B) Growth curve of Bcl-2 ES cells (square) and parental ES cells cultured with 12.5 μM of PD98059 (circle) in serum- and feeder-free conditions. (C) Colony formation activity of parental (p) ES cells cultured without (Non) or with PD98059, and Bcl-2 ES cells at low cell density. Cultures were initiated with 200 cells per well (12 well-plate) and colonies were enumerated 7 days later.
(§2) Cell culture. D3 ES cells (Doetschman et al. (1985) J. Embryol. Exp. Morphol. 87:27-45) were maintained as previously described (Yamane et al. (1997) Blood 90:3516-3523), and clones expressing human Bcl-2 were established by co-transfecting parental D3 ES cells with the human Bcl2-IRES-EGFP transgene under control of the CAG promoter, and a puromycin resistance gene cassette. Bcl-2 ES cell clones were selected and expanded in the presence of puromycin. For serum-free cultures, ES cells are maintained in X-VIVO 15 (Cambrex) supplemented with 2 mM GlutaMax-1 (Gibco), 0.1 mM 2-mercaptoethanol, 1,000 U/mL ESGRO (Chemicon International), 100 U/mL penicillin (Gibco), and […] streptomycin (Gibco) on gelatin-coated dishes. Alternatively, IMDM/F12 (1:1) (Gibco) supplemented with 2 mM GlutaMax-1, 0.1 mM 2-mercaptoethanol, 0.1% polyvinyl alcohol (Sigma), 1× Insulin-Transferin-Selenium-X (Gibco), 1,000 U/mL ESGRO, 100 U/mL penicillin, and 100 mg streptomycin was used where indicated. Cells were dissociated with Cell Dissociation Buffer (Enzyme-Free, Hanks'-based, Gibco).
MAP kinase inhibitors. 1 μM SB203580 (Calbiochem) and 12.5 μM PD98059 (Calbiochem) were used as described (Qi et al. (2004) Proc. Natl. Acad. Sci USA 101, 6027-6032; Burdon et al. (1999) Dev. Biol. 210, 30-43).

parental ES cells = assay: Colony formation activity at low cell density in serum- and feeder-free conditions; settings: 200 cells per well (12 well-plate), colonies enumerated 7 days later (FIG. 5C)
Experimental: as §1
as §2, with “Alternatively, IMDM/F12 (1:1) (Gibco) supplemented with 2 mM GlutaMax-1, 0.1 mM 2-mercaptoethanol, 0.1% polyvinyl alcohol (Sigma), 1× Insulin-Transferin-Selenium-X (Gibco), 1,000 U/mL ESGRO, 100 U/mL penicillin, and 100 mg streptomycin was used where indicated. Cells were dissociated with Cell Dissociation Buffer (Enzyme-Free, Hanks'-based, Gibco).” left out

[2] = test system: Bcl-2, Bcl-xL, Mcl-1, Bax; assay: Western blot analysis of Bcl-2 family members after BMP stimulation; settings: parental ES cells, serum- and feeder-free, treated with BMP4 for 6 hours (FIG. 4B)
Experimental: FIG. 4A-4B. Western blot analysis for Smad proteins and Bcl-2 family members. (A) Cell lysates of parental cells cultured in conventional conditions with serum [p(serum)], a Bcl-2 clone in serum and feeder-free conditions untreated (Bcl-2), or treated with BMP4 for 90 minutes (Bcl-2+BMP4) were analyzed for the presence of phospho-Smad1/5/8 by western blotting (upper panel). The same membrane was stripped and reprobed with anti-actin antibody (lower panel). The band denoted by an asterisk is a product of non-specific staining. (B) Western blot analysis of Bcl-2 family members was performed for parental ES cells in conventional conditions with serum (serum), and for parental ES cells in serum- and feeder-free conditions without (Non) or treated with BMP4 for 6 hours (BMP4).
Western blots. Cells were lysed in 50 mM Tris-Cl (pH7.5)/150 mM NaCl/1% Triton-X/1% protease inhibitor cocktail set III (Calbiochem)/1 mM EDTA/1 mM Na3Vo4/1 mM NaF and proteins were separated by SDS-PAGE under denaturing conditions and transferred to Immobilon-P membrane (Miilipore). After blocking with 5% milk, the membrane was incubated with primary antibodies against phospho-Smad1/5/8 (Cell Signaling Technology), actin (Sigma), Bcl-2 (Dako), Bcl-xL (BD Bioscience), Mcl-1 (ABGENT), or Bax (BD Bioscience), washed, and then incubated with HRP-conjugated secondary antibodies. […]

[3] = test system: parental cell line (D3 ES cells); assay: Viability of the parental cell line in serum- and feeder-free conditions with BMP; settings: addition of BMP
From the text: as §2

Molecule: COc1cccc(-c2cc(=O)c3ccccc3o2)c1N [PD98059]
- growth speed of parental cell line with inhibitor compared with Bcl-2 ES cells ([1]; 12.5 μM PD98059, serum- and feeder-free (FIG. 5B)): somewhat faster
- differentiated cells which appeared during culture ([1]; parental ES cell line, 12.5 μM PD98059, serum- and feeder-free, 14 days (FIG. 5A)): dramatically reduced
- continuous growth in serum- and feeder-free conditions in the presence of LIF without Bcl-2 ([1]; parental ES cells, 12.5 μM PD98059, crisis upon continued passaging (FIG. 5B)): supported the continuous growth
- colony formation at low cell density (parental ES cells): could never support the colony formation

Molecule: C[S+]([O-])c1ccc(-c2nc(-c3ccncc3)c(-c3ccc(F)cc3)[nH]2)cc1 (stereo not shown) [SB 203580]
- effect on self-renewal and differentiation of ES cells ([1]; 1 μM SB203580, serum- and feeder-free conditions): did not show any effect

B1: BMP: bone morphogenic protein; BMP4 used for stimulation of ES cells (protein, UniProt P12644 293-408, looked up)
Bone morphogenetic protein 4: SPKHHSQRARKKNKNCRRHSLYVDFSDVGWNDWIVAPPGYQAFYCHGDCPFPLADHLNSTNHAIVQTLVNSVNSSIPKACCVPTELSAISMLYLDEYDKVVLKNYQEMVVEGCGCR
- expression of Bcl-2, Bcl-xL, Mcl-1 anti-apoptotic proteins [2]: neither Bcl-2, Bcl-xL, or Mcl-1 anti-apoptotic proteins are up-regulated
- viability of the parental cell line [3]: did not improve viability
